According to PMC5556071, “ATR inhibition facilitates targeting of leukemia dependence on convergent nucleotide biosynthetic pathways” (Nature Communications, 2017):
Where “and” joins values, the source holds several entries; their conditions need not be identical. Equal values may be shown once.

Tested on: CEM cells
Test: Non-targeted LC-MS metabolite profiling: percent [13C6]glucose labeling and relative metabolite levels
Assay type: cell-based, human
Settings: CEM cells, 12 h following release from G1 arrest, replicates #1-#6
Text: To further investigate the functions of dCK and ATR at the G1/S transition in CEM cells, a non-targeted liquid chromatography mass spectrometry (LC-MS) assay was used to determine the utilization of labeled [^13C6]glucose and [^13C9,^15N3]deoxycytidine, the main substrates for de novo and salvage nucleotide biosynthesis, respectively. Of the 166 metabolites identified in CEM cells treated with VE-822 and/or dCKi, 105 metabolites found in all four treatment groups contained glucose-derived ^13C atoms. […] These metabolites included intermediates such as rUTP, rCTP and rCDP in the de novo dCTP biosynthesis (Fig. 1d). […] However, several deoxyribonucleotides, including dCTP, were below the limit of detection of the non-targeted LC-MS approach, raising the concern that the sensitivity of this assay is not sufficient to measure the contribution of the salvage pathway or the ratio of de novo and salvage biosynthesis to these pools. To address this problem, a newly developed targeted MS assay was developed (Fig. 1e and Supplementary Fig. 3). In this assay, samples containing either extracted dNTPs or hydrolyzed DNA from labeled cells are separated by LC for detection by a triple quadrupole mass spectrometer using multiple reaction monitoring (LC-MS/MS-MRM). The first (Q1) and third (Q3) quadrupoles function as mass filters, while the second (Q2) quadrupole serves as a collision chamber (Fig. 1e). For instance, to profile the biosynthetic composition of deoxycytidine (dC) derived from hydrolyzed DNA or dCTP, an intact, protonated dC ion is selected in Q1, followed by fragmentation of the glycosidic bond, which releases protonated cytosine in Q2, that is filtered in Q3 and detected to generate an ion chromatogram. The peak areas for the ion chromatograms of salvage [^13C9,^15N3]dC (red trace), de novo [^13C5]dC (black trace, from [^13C6]glucose) and unlabeled dC (gray trace) (Fig. 1e) are used to determine the relative contributions of the de novo and salvage routes both to dCTP pools and to DNA-incorporated dCTP.
Cells were transferred into RPMI-1640 without glucose and supplemented with 10% dialyzed FBS (Gibco) containing the following labeled substrates: precursors for de novo [U-^13C6]glucose (Sigma-Aldrich, 389374) at 11 mM; precursors for purine salvage [U-^13C10,^15N5]dA (Cambridge Isotopes, CIL 3896), [^15N5]dA (Cambridge Isotopes, NLM-3895) and [^15N5]dG (Cambridge Isotopes, NLM-3899) at 5 µM or as indicated; and precursors for pyrimidine salvage: [U-^13C9,^15N3]dC (Silantes, 124603602) and [U-^13C10,^15N2]dT (Cambridge Isotopes, CNLM-3902) at 5 µM and [^15N2]orotate (Cambridge Isotopes, NLM-1048) at indicated concentrations. The cells were incubated for 12 h or as indicated before sample collection and processing. […]
Non-targeted LC-MS metabolic assays. 1 x 10^6 cells were washed with ice-cold 150 mM ammonium acetate twice before adding 1 mL of ice-cold 80% methanol with 10 nM norvaline as an internal standard. After vigorous vortexing, samples were centrifuged at maximum speed, the aqueous layer was transferred to a glass vial and the metabolites were dried under vacuum. Metabolites were resuspended in 50 μL 70% acetonitrile (ACN) and 5 μL of this solution used for the mass spectrometer-based analysis. The analysis was performed on a Q Exactive (Thermo Scientific) in polarity-switching mode with positive voltage 4.0 kV and negative voltage 4.0 kV. The mass spectrometer was coupled to an UltiMate 3000RSLC (Thermo Scientific) UHPLC system. Mobile phase A was 5 mM ammonium acetate (NH4AcO), pH 9.9, B was acetonitrile and the separation achieved on a Luna […] NH2 100 A column (150 × 2.0 mm, Phenomenex). The flow was 200 μL/min, and the gradient ran from 15% A to 95% A in 18 min, followed by an isocratic step for 9 min and re-equilibration for 7 min. Metabolites were detected and quantified as area under the curve based on retention time and accurate mass (≤ 3 p.p.m.) using the TraceFinder 3.1 (Thermo Scientific). Relative amounts of […]

[1] = metabolite 2-HG (C02630), listed as D
[2] = metabolite 2-Oxoadipate (C00322), listed as D
[3] = metabolite 3PG (C00197), listed as D
[4] = metabolite 4-OH-PheLac (C03672), listed as D
[5] = metabolite 5-Oxoproline (C01879), listed as D
[6] = metabolite 5M-adenosine (C00170), listed as D
[7] = metabolite A (C00212), listed as D
[8] = metabolite ADP (C00008), listed as D
[9] = metabolite AMP (C00020), listed as D
[10] = metabolite ATP (C00002), listed as D
[11] = metabolite Ac-carnitine (C02571), listed as D
[12] = metabolite Ac-choline (C01996), listed as D
[13] = metabolite Aconitate (C00417), listed as D
[14] = metabolite Adenine (C00034), listed as D
[15] = metabolite Ala (C00041), listed as D
[16] = metabolite Allantoin (C02350), listed as D
[17] = metabolite Arg (C00062), listed as D

Question: What does the source list for `COc1ccc(-c2nc([C@@H](C)Sc3nc(N)cc(N)n3)c(C)s2)cc1OCCNS(C)(=O)=O` [dCKi]?
Answer: Relative level, S7P (listed as D): 0.547 and 0.8 and 1.8 and 0.0379 and 0.143 and 0.5; Relative level, SAM (listed as D): 1.1 and 1.4 (2×) and 0.8 and 0.6 and 0.7; Relative level, Sarc (C00213) (listed as D): 1.2 and 1.0 (2×) and 1.6 and 0.662 and 0.641; Relative level, Ser (C00065) (listed as D): 1.1 and 1.2 and 1.3 and 0.846 and 0.7 and 0.9; Relative level, Shikimate (C00493) (listed as D): 1.3 and 0.7 and 1.0 and 0.649 and 0.9 (2×); Relative level, Succ (C00042) (listed as D): 1.5 and 0.6 (2×) and 1.3 and 0.374 and 0.633; Relative level, T (C00214) (listed as D): 1.2 and 1.1 and 1.0 and 1.4 and 151.2 and 4.3; Relative level, Thr (C00188) (listed as D): 1.1 and 1.2 and 1.3 and 0.8 and 0.7 and 0.738; Relative level, Thymine (C00178) (listed as D): 1.0 and 1.2 and 1.3 and 0.9 and 0.95 and 1.1; Relative level, Trigonelline (C01004) (listed as D): 1.2 (2×) and 0.847 and 1.1 and 1.5 and 1.0; Relative level, Trp (C00078) (listed as D): 1.1 and 1.4 and 1.7 and 0.9 (2×) and 1.0; Relative level, Tyr (C00082) (listed as D): 1.2 and 1.4 and 1.6 and 0.9 and 0.7 and 0.8; Relative level, Tyramine (C00483) (listed as D): 1.2 (2×) and 1.1 and 0.8 (2×) and 0.7; Relative level, UDP (C00015) (listed as D): 0.742 and 1.3 and 2.0 and 0.235 and 0.464 and 0.9; Relative level, UDP-Glc (C00029) (listed as D): 0.8 and 1.2 and 1.1 and 0.3 and 0.6 (2×); Relative level, UDP-GlcNAc (C00043) (listed as D): 1.0 and 1.4 and 1.2 and 0.5 and 0.744 and 0.8; Relative level, UMP (C00105) (listed as D): 1.3 and 1.6 and 1.9 and 0.4 and 0.552 and 0.7; Relative level, UTP (C00075) (listed as D): 0.4 and 0.9 and 1.4 and 0.092 and 0.334 and 0.547; Relative level, Uracil (C00106) (listed as D): 1.2 (2×) and 0.9 and 1.0 and 1.3 and 1.9; Relative level, Uric Acid (C00366) (listed as D): 1.5 and 0.155 and 0.646 and 0.6 and 0.362 and 0.421; Relative level, Urocanate (C00785) (listed as D): 2.0 and 0.4 and 0.448 and 1.2 (2×) and 1.0; Relative level, Val (C00183) (listed as D): 1.1 and 1.2 (2×) and 0.9 (2×) and 1.0; Relative level, Vit-C (C00072) (listed as D): 0.9 and 0.181 and 1.3 and 0.0595 and 0.3 and 0.557; Relative level, Xanthine (C00385) (listed as D): 1.7 and 0.5 and 0.6 and 1.1 and 1.5 and 1.2; Glucose labeling, 2-HG [1]: 6.77% and 13.59% and 15.44% and 1.27% and 1.71% and 4.69%; Relative level, 2-HG [1]: 1.0 and 0.9 and 1.5 and 0.5 (2×) and 0.7; Glucose labeling, 2-HIC (metabolite 2-HIC (C03264)): 0.00%; Relative level, 2-HIC (metabolite 2-HIC (C03264), listed as D): 1.2 and 1.1 and 1.4 and 0.9 and 1.3 and 0.8; Glucose labeling, 2-KIC (metabolite 2-KIC (C00233)): 0.00%; Relative level, 2-KIC (metabolite 2-KIC (C00233), listed as D): 1.2 and 0.9 (3×) and 1.1 and 0.8; Glucose labeling, 2-Oxoadipate [2]: 0.00% (5×) and 1.11e-14%; Relative level, 2-Oxoadipate [2]: 0.7 (2×) and 0.646 and 0.742 and 1.0 and 0.9; Glucose labeling, 2-Oxosuccinamate (metabolite 2-Oxosuccinamate (C02362)): 0.0737%; Relative level, 2-Oxosuccinamate (metabolite 2-Oxosuccinamate (C02362), listed as D): 1.2 and 0.465 and 0.6 and 0.528 and 0.8 and 0.469; Glucose labeling, 3PG [3]: 92.31% and 91.58% and 98.25% and 86.75% and 100.00% and 88.16%; Relative level, 3PG [3]: 0.4 and 0.7 and 0.846 and 0.082 and 0.125 and 0.0782; Glucose labeling, 4-OH-PheLac [4]: 0.00% (5×) and -2.22e-14%; Relative level, 4-OH-PheLac [4]: 1.1 and 1.4 and 1.5 and 0.641 and 0.6 and 0.8; Glucose labeling, 5-Oxoproline [5]: 0.92% and 1.40% and 1.07% and 1.03% and 1.24% and 1.22%; Relative level, 5-Oxoproline [5]: 1.1 and 1.2 and 1.5 and 0.853 and 0.9 and 1.0; Glucose labeling, 5M-adenosine [6]: 0.00% (3×) and -2.22e-14% (3×); Relative level, 5M-adenosine [6]: 1.2 and 1.7 and 1.8 and 0.756 and 0.7 and 1.0; Glucose labeling, A [7]: 0.07% and 0.09% and 0.36% and 0.41% (2×) and 0.34%; Relative level, A [7]: 1.5 and 0.9 (2×) and 1.1 and 0.856 and 0.8; Glucose labeling, ADP [8]: 70.99% and 74.74% and 75.09% and 55.71% and 66.84% and 71.23%; Relative level, ADP [8]: 0.7 and 1.2 and 1.9 and 0.226 and 0.4 and 0.8; Glucose labeling, AMP [9]: 68.04% and 70.86% and 73.23% and 43.50% and 56.58% and 70.44%; Relative level, AMP [9]: 1.2 (2×) and 1.8 and 0.25 and 0.471 and 0.9; Glucose labeling, ATP [10]: 75.87% and 76.55% and 77.60% and 67.61% and 74.40% and 75.12%; Relative level, ATP [10]: 0.38 and 0.9 and 1.3 and 0.117 and 0.3 and 0.6; Glucose labeling, Ac-carnitine [11]: 31.00% and 33.96% and 35.62% and 27.44% and 29.81% and 28.83%; Relative level, Ac-carnitine [11]: 1.1 and 1.3 and 1.2 and 0.7 and 0.756 and 0.8; Glucose labeling, Ac-choline [12]: 0.00451% and 0.00494% and 0.00571% and 0.0058% and 0.0047% and 0.00638%; Relative level, Ac-choline [12]: 0.9 and 1.1 and 1.0 (4×); Glucose labeling, Aconitate [13]: 32.66% and 37.44% and 42.11% and 17.39% and 31.02% and 28.93%; Relative level, Aconitate [13]: 0.7 and 1.2 and 1.6 and 0.2 and 0.5 and 0.639; Glucose labeling, Adenine [14]: 0.0339% and 2.19% and 0.79% and 0.14% and 0.00469% and 0.21%; Relative level, Adenine [14]: 1.9 and 0.7 and 1.3 (2×) and 3.1 and 1.0; Glucose labeling, Ala [15]: 47.12% and 64.98% and 65.33% and 49.43% and 49.22% and 48.91%; Relative level, Ala [15]: 1.5 and 1.2 and 1.3 and 0.8 (3×); Glucose labeling, Allantoin [16]: 0.00% (5×) and 1.11e-14%; Relative level, Allantoin [16]: 1.1 and 1.9 and 2.0 and 0.8 and 1.3 and 1.5; Glucose labeling, Arg [17]: 0.0044% and 0.00434% and 0.00388% and 0.00418% and 0.00453% and 0.00424%; Relative level, Arg [17]: 1.0 and 1.3 and 1.5 and 0.749 and 0.7 (2×); Glucose labeling, Arg-Succ (metabolite Arg-Succ (C03406), listed as D): 7.24% and 12.66% and 11.40% and 7.14% and 3.06% and 7.90%
